SMILES strings stand for the structures.

This is an account of results in patent US20210300900A1, “OGA INHIBITOR COMPOUNDS” (Janssen Pharmaceutica NV, priority 2018, published 2021).

For experiment [1], the target named is T1, OGA (Homo sapiens, UniProt O60502).
T1 construct: endogenous in cells; host or cells: HEK293 cells inducible for P301L mutant human Tau (isoform 2N4R)
T1 sequence (O60502 1-916): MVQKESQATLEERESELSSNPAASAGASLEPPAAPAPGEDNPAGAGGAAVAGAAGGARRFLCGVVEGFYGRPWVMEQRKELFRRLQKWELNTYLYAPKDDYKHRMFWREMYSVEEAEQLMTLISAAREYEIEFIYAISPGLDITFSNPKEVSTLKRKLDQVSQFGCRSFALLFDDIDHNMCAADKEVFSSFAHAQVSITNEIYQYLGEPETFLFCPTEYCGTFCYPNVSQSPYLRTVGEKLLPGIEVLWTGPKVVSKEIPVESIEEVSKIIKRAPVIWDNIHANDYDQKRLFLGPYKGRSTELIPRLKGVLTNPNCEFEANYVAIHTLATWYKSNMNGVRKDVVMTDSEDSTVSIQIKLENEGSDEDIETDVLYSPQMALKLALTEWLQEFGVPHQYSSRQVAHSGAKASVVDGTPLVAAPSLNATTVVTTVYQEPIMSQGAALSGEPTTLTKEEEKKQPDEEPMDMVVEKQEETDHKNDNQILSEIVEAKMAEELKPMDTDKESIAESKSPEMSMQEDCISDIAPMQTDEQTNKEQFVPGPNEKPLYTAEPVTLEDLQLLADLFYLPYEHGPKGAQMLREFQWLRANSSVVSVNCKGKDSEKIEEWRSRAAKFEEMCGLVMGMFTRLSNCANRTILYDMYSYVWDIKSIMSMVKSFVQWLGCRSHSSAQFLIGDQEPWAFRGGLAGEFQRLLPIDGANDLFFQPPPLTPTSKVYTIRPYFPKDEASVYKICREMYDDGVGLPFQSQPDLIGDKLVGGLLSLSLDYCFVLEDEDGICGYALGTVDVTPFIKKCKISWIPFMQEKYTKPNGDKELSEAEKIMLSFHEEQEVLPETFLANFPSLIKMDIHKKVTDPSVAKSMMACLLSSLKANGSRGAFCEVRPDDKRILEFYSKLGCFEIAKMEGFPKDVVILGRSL
Nature of the experiment: OGA cellular assay (ICC detection of O-GlcNAcylated proteins in HEK293 cells inducible for P301L mutant human Tau). To be noted: 6 hours incubation; for Emax: HEK293, HEK293 cells inducible for P301L mutant human Tau, maximum = Thiamet G 200 uM; for EC50: HEK293 cells inducible for P301L mutant human Tau, read-out: Cellular hOGA, pEC50 (converted). In kind it is cell-based. The procedure: HEK293 cells inducible for P301L mutant human Tau (isoform 2N4R) were established at Janssen. Thiamet-G was used for both plate validation (high control) and as reference compound (reference EC50 assay validation). OGA inhibition is evaluated through the immunocytochemical (ICC) detection of O-GlcNAcylated proteins by the use of a monoclonal antibody (CTD110.6; Cell Signaling, #9875) detecting O-GlcNAcylated residues as previously described (Dorfmueller et al. 2010 Chemistry & biology, 17:1250). Inhibition of OGA will result in an increase of O-GlcNAcylated protein levels resulting in an increased signal in the experiment. Cell nuclei are stained with Hoechst to give a cell culture quality control and a rough estimate of immediate compounds toxicity, if any. ICC pictures are imaged with a Perkin Elmer Opera Phenix plate microscope and quantified with the provided software Perkin Elmer Harmony 4.1.
Cells were propagated in DMEM high Glucose (Sigma, #D5796) following standard procedures. 2 days before the cell assay cells are split, counted and seeded in Poly-D-Lysine (PDL) coated 96-wells (Greiner, #655946) plate at a cell density of 12,000 cells per cm^2 (4,000 cells per well) in 100 μl of Assay Medium (Low Glucose medium is used to reduce basal levels of GlcNAcylation) (Park et al. 2014 The Journal of biological chemistry 289:13519). At the day of compound test medium from assay plates was removed and replenished with 90 μl of fresh Assay Medium. 10 μl of compounds at a 10 fold final concentration were added to the wells. Plates were centrifuged shortly before incubation in the cell incubator for 6 hours. DMSO concentration was set to 0.2%. Medium is discarded by applying vacuum. For staining of cells medium was removed and cells washed once with 100 μl D-PBS (Sigma, #D8537). From next step onwards unless other stated assay volume was always 50 μl and incubation was performed without agitation and at room temperature. Cells were fixed in 50 μl of a 4% paraformaldehyde (PFA, Alpha aesar, #043368) PBS solution for 15 minutes at room temperature. […] Before analysis samples were washed 2 times manually for 5 minutes in ICC base buffer.
Imaging is performed using Perkin Elmer Phenix Opera using a water 20×objective and recording 9 fields per well. Intensity readout at 488 nm is used as a measure of O-GlcNAcylation level of total proteins in wells. To assess potential toxicity of compounds nuclei were counted using the Hoechst staining. IC50-values are calculated using parametric non-linear regression model fitting. As a maximum inhibition Thiamet G at a 200 uM concentration is present on each plate. In addition, a concentration response of Thiamet G is calculated on each plate.

For experiment [2], the target named is T2, recombinant human Meningioma Expressed Antigen 5 (MGEA5), also referred to as O-GcNAcase (OGA) (Homo sapiens, UniProt O60502).
T2 construct: Full length OGA enzyme was purchased at OnGene (cat #TP322411); purchased OnGene (so in the source)
T2 sequence (O60502 1-916): T1 sequence (O60502 1-916)
The experiment is described as follows: OGA biochemical assay (inhibition of FM-GlcNAc hydrolysis, fluorescence). The settings on record: FM-GlcNAc substrate; for Emax: read-out: Enzymatic Emax (%); for IC50: read-out: Enzymatic hOGA, pIC50 (converted). The text has this: The assay is based on the inhibition of the hydrolysis of fluorescein mono-β-D-N-Acetyl-Glucosamine (FM-GlcNAc) (Mariappa et al. 2015, Biochem J 470:255) by the recombinant human Meningioma Expressed Antigen 5 (MGEA5), also referred to as O-GcNAcase (OGA). The hydrolysis FM-GlcNAc (Marker Gene technologies, cat #M1485) results in the formation of B-D-N-glucosamineacetate and fluorescein. The fluorescence of the latter can be measured at excitation wavelength 485 nm and emission wavelength 538 nm. An increase in enzyme activity results in an increase in fluorescence signal. Full length OGA enzyme was purchased at OnGene (cat #TP322411). The enzyme was stored in 25 mM Tris.HCl, pH 7.3, 100 mM glycine, 10% glycerol at −20° C. Thiamet G and GlcNAcStatin were tested as reference compounds (Yuzwa et al. 2008 Nature Chemical Biology 4:483; Yuzwa et al. 2012 Nature Chemical Biology 8:393). The assay was performed in 200 mM Citrate/phosphate buffer supplemented with 0.005% Tween-20. 35.6 g Na2HPO4 2H2O (Sigma, #C0759) were dissolved in 1 L water to obtain a 200 mM solution. 19.2 g citric acid (Merck, #1.06580) was dissolved in 1 L water to obtain a 100 mM solution. pH of the sodiumphosphate solution was adjusted with the citric acid solution to 7.2. The buffer to stop the reaction consists of a 500 mM Carbonate buffer, pH 11.0. 734 mg FM-GlcNAc were dissolved in 5.48 mL DMSO to obtain a 250 mM solution and was stored at −20° C. OGA was used at a 2 nM concentration and FM-GlcNAc at a 100 uM final concentration. Dilutions were prepared in assay buffer.
50 nl of a compound dissolved in DMSO was dispensed on Black Proxiplate TM 384 Plus Assay plates (Perkin Elmer, #6008269) and 3 μl fl-OGA enzyme mix added subsequently. Plates were pre-incubated for 60 min at room temperature and then 2 μl FM-GlcNAc substrate mix added. […] Plates were briefly centrifuged for 1 min at 1000 rpm and incubate at room temperature for 6 h. To stop the reaction 5 μl STOP buffer were added and plates centrifuge again 1 min at 1000 rpm. Fluorescence was quantified in the Thermo Scientific Fluoroskan Ascent or the PerkinElmer EnVision with excitation wavelength 485 nm and emission wavelength 538 nm.
For analysis a best-fit curve is fitted by a minimum sum of squares method. From this an IC50 value and Hill coefficient was obtained. High control (no inhibitor) and low control (saturating concentrations of standard inhibitor) were used to define the minimum and maximum values.

On to `Cc1cc(C[C@H]2CCCN(C(C)c3cc(C4CC4)[nH]n3)C2)cc(C)n1` (mixture of isomers) [Product 21], for which, in experiment [1], the Emax turned out to be 59% and the EC50 was 468 nM. In experiment [2], the Emax was 101% and the IC50 was 24.5 nM.
The like results for `CCOc1cnc(C(C)N2CCC[C@H](Cc3cc(C)nc(C)c3)C2)o1` (mixture of isomers) [Product 30] were, in that order, 60%, 490 nM, 101% and 10.2 nM.
The like results for `CCC(=O)Nc1cncc(C(C)N2CCC[C@H](Cc3cc(C)nc(C)c3)C2)c1` (mixture of isomers) [Product 38] were, in that order, 3%, > 1000 nM, 99% and 70.8 nM.
Consider `CNC(=O)c1cncc(C(C)N2CCC[C@H](Cc3cc(C)nc(C)c3)C2)c1` (mixture of isomers) [Product 40], for which, in experiment [1], the Emax is 72% and the EC50 is 407 nM. Besides, in experiment [2], the Emax came out at 101% and the IC50 is 11.5 nM.
The like results for `COc1cncc(C(C)N2CCC[C@H](Cc3cc(C)nc(C)c3)C2)c1` (mixture of isomers) [Product 43] were, in that order, 53%, 933 nM, 101% and 38 nM.
For `COc1cccc(C(C)N2CCCC(c3cc(C)nc(C)c3)C2)n1` (stereo not shown) [Product 73], in experiment [2], the maximum response (Emax) came to 96% and the IC50 was 741 nM.
`COc1cc(C2CCCN(C(C)c3cc(NC(C)=O)[nH]n3)C2)cc(C)n1` (stereo not shown) [Product 75]: in experiment [2], the Emax is 95% and the IC50 is 562 nM.
The like results for `COc1cc(OC2CCCN(C(C)c3nc(OC)ccc3F)C2)cc(C)n1` (stereo not shown) [Product 81] were, in that order, 99% and 562 nM.
With `CC(=O)Nc1cc(C(C)N2CCCC(CNc3cc(C)nc(C)c3)C2)[nH]n1` (stereo not shown) [Product 83], in experiment [2], the Emax amounted to 103% and the IC50 is 60.3 nM.
On to `CC(=O)Nc1cc(C(C)N2CCCC(CNc3cc(C)nc(C)c3)C2)[nH]n1` (stereo not shown) [Product 87], for which the IC50 in experiment [2] was 28.8 nM.
In the case of `COc1cccc([C@@H](C)N2CCC[C@H](CNc3cc(C)nc(C(F)(F)F)c3)C2)n1` [Product 92], in experiment [2], the “Enzymatic Emax (%)” value was found to be 74% and the “Enzymatic hOGA; pIC50” value is given as 5.31.
The like results for `COc1cccc([C@H](C)N2CCC[C@H](CNc3cc(C)nc(C(F)(F)F)c3)C2)n1` [Product 93] were, in that order, 29% and <5.
The like results for `COc1cccc([C@@H](C)N2CCC[C@@H](CNc3cc(C)nc(C(F)(F)F)c3)C2)n1` [Product 94] were, in that order, 72% and 5.24.
Regarding `CC(=O)Nc1cc(C(C)N2CC[C@@H](Cc3cc(C)nc(C)c3)C2)n[nH]1` (stereo partly shown) [Product 97], in experiment [2], the Emax is 94% and the IC50 was 575 nM.
As for `CC(=O)Nc1cc(C(C)N2CC[C@@H](Cc3cc(C)nc(C)c3)C2)n[nH]1` (stereo partly shown) [Product 104], in experiment [2], the “Enzymatic Emax (%)” value stood at 82% and the IC50 was 2820 nM.
As to `COc1ccc(F)c([C@H](C)N2CC[C@H](Cc3ncc(F)cc3F)C2)n1` [Product 109], in experiment [2], the Emax was determined as 60% and the IC50 was 7590 nM.
The like results for `CC(=O)Nc1cc(C(C)N2CC[C@H](Cc3ncc(C)nc3C)C2)n[nH]1` (stereo partly shown) [Product 110] were, in that order, 92% and 813 nM.
The like results for `COc1ccc(F)c(C(C)N2CC[C@H](Cc3ncc(C)nc3C)C2)n1` (stereo partly shown) [Product 113] were, in that order, 74% and 3890 nM.
For `CC(=O)Nc1cc(CN2CCCC(COc3cc(C)nc(C)c3)C2)n[nH]1` (stereo not shown) [Product 119], in experiment [2], the Emax came to 92% and the IC50 is 1230 nM.
In the case of `CC(=O)Nc1nc(CN2CCC[C@H](Cc3cc(C)nc(C)c3)C2)c[nH]1` [Product 135], in experiment [2], the Emax worked out at 98% and the IC50 was 490 nM.
With `CC(=O)Nc1cc(C(C)N2CCCC(Oc3cc(C)nc(C(F)(F)F)c3)C2)n[nH]1` (stereo not shown) [Product 138], in experiment [2], the Emax stood at 81% and the IC50 is 2450 nM.
In the case of `CC(=O)Nc1ncc(CN2CCC[C@H](Cc3cc(C)nc(C)c3)C2)n1C` [Product 159], the IC50 in experiment [2] was > 10000 nM.
Consider `COc1ccc(C)c(CN2CCC[C@H](Cc3cc(C)nc(C)c3)C2)n1` [Product 160], for which, in experiment [2], the Emax is 24% and the IC50 is > 10000 nM.
Regarding `CCOc1cc(CN2CCC[C@H](Cc3cc(C)nc(C)c3)C2)n(C)n1` [Product 161], in experiment [2], the Emax turned out to be 52% and the IC50 is > 10000 nM.
In the case of `Cc1cc(C[C@H]2CCCN(Cc3cnc(C4CC4)[nH]3)C2)cc(C)n1` [Product 165], in experiment [2], the Emax came to 24% and the IC50 is > 10000 nM.

Broadly, the Emax is the size of the effect at its maximum, as opposed to the concentration needed.
